From patent publication US20210260070A1, “LYSIN CF-301 RESENSITIZES METHICILLIN-RESISTANT STAPHYLOCOCCUS AUREUA (MRSA) TO PENICILLIN DERIVATIVES AND FIRST GENERATION CEPHALOSPORINS” (priority 2018, published 2021) come the findings set out here.

What all share (type): cell-based, Staphylococcus aureus
One assay has as its system MRSA strain ATCC 33591. Description: Broth microdilution checkerboard assay. Set-up: unit not given here. The following applies: for MICinitial: each agent alone (initial); for MICfinal: * = Resensitization. The text has this: (§1) In some embodiments, the present lysin polypeptides reduce the minimum inhibitory concentration (MIC) of an antibiotic. Any known method to assess MIC may be used. In some embodiments, a checkerboard assay is used to determine the effect of a lysin on antibiotic concentration. The checkerboard assay is based on a modification of the CLSI method for MIC determination by broth microdilution (See Clinical and Laboratory Standards Institute (CLSI), CLSI. 2015. Methods for Dilution Antimicrobial Susceptibility Tests for Bacteria That Grow Aerobically; Approved Standard-10th Edition. Clinical and Laboratory Standards Institute, Wayne, Pa., which is herein incorporated by reference in its entirety and Ceri et al. 1999. J. Clin. Microbiol. 37: 1771-1776, which is also herein incorporated by reference in its entirety).
(§2) Checkerboards are constructed by first preparing columns of e.g., a 96-well polypropylene microtiter plate, wherein each well has the same amount of antibiotic diluted 2-fold along the horizontal axis. […] The lysin and antibiotic dilutions are then combined, so that each column has a constant amount of antibiotic and doubling dilutions of lysin, while each row has a constant amount of lysin and doubling dilutions of antibiotic. Each well thus has a unique combination of lysin and antibiotic. Bacteria are added to the drug combinations at a given concentration. […] Summation fractional inhibitory concentrations (ΣFICs) are calculated for each drug and the minimum ΣFIC value (ΣFICmin) is used to determine the effect of the lysin/antibiotic combination.
(§3) A step-wise approach was used to evaluate PlySs2 as a resensitizing agent. First, broth microdilution checkerboard assays were used to determine fractional inhibitory concentration index (FICI) values for combinations of PlySs2 with three β-lactam antibiotics [oxacillin (OXA), nafcillin (NAF), and cefazoline (CFZ)] against nine different MRSA strains. Data from the checkerboard assays were generated to determine the interaction and potency of PlySs2 with the β-lactam antibiotics in comparison to their individual activities. This comparison is represented as the FICI value, whereby values of ≤0.5 are consistent with synergy, values of >0.5-<1 are highly-additive, values of 1-≤2 are indifferent, and values >2 are antagonistic. Representative single agent MICs are also shown, determined for each agent alone (initial) and in combinations (final). Resensitization occurs in synergistic combinations in which the β-lactam antibiotic MIC values fall below established breakpoints, e.g. a MIC value of ≤2 for β-lactam-sensitive isolates, a MIC value of ≥4 for β-lactam-resistant isolates. See Clinical and Laboratory Standards Institute (CLSI), CLSI. 2019. M100 Performance Standards for Antimicrobial Susceptibility Testing; 29th Edition. Clinical and Laboratory Standards Institute, Wayne, Pa.

Another assay relates to MRSA strain ATCC 43300. The assay is described as follows: Broth microdilution checkerboard assay. Set-up: unit not given here. The following applies: for MICinitial: each agent alone (initial); for MICfinal: * = Resensitization.
Description: as §1, §2, §3

The test system of another assay is MRSA strain CAIRD 426. The assay is described as follows: Broth microdilution checkerboard assay. Set-up: unit not given here. As to conditions: for MICinitial: each agent alone (initial); for MICfinal: * = Resensitization.
Description: as §1, §2, §3

The next assay concerns MRSA strain HPV 107. The assay is described as follows: Broth microdilution checkerboard assay. Set-up: unit not given here. As to conditions: for MICinitial: each agent alone (initial); for MICfinal: * = Resensitization.
Description: as §1, §2, §3

The test system of a further assay is MRSA strain JMI 1280. Description: Broth microdilution checkerboard assay. Set-up: unit not given here. As to conditions: for MICinitial: each agent alone (initial); for MICfinal: * = Resensitization.
Description: as §1, §2, §3

A further assay deals with MRSA strain JMI 227. Description: Broth microdilution checkerboard assay. As to conditions: for MICinitial: each agent alone (initial); for MICfinal: * = Resensitization. Set-up: unit not given here.
Description: as §1, §2, §3

In the next assay the test system is MRSA strain JMI4789. Description: Broth microdilution checkerboard assay. The following applies: for MICinitial: each agent alone (initial); for MICfinal: * = Resensitization. Set-up: unit not given here.
Description: as §1, §2, §3

In a further assay the test system is MRSA strain MW2. Description: Broth microdilution checkerboard assay. Set-up: unit not given here. The following applies: for MICinitial: each agent alone (initial); for MICfinal: * = Resensitization.
Description: as §1, §2, §3

A further assay concerns MRSA strain NRS 11. Description: Broth microdilution checkerboard assay. Set-up: unit not given here. The following applies: for MICinitial: each agent alone (initial); for MICfinal: * = Resensitization.
Description: as §1, §2, §3

Assay [1] relates to nine different MRSA strains. Description: Broth microdilution checkerboard assays, summary over the panel. The following applies: each of the nine MRSA strains; breakpoint MIC ≤2 sensitive.
Description: as §1, §2
A step-wise approach was used to evaluate PlySs2 as a resensitizing agent. First, broth microdilution checkerboard assays were used to determine fractional inhibitory concentration index (FICI) values for combinations of PlySs2 with three β-lactam antibiotics [oxacillin (OXA), nafcillin (NAF), and cefazoline (CFZ)] against nine different MRSA strains. […] Representative single agent MICs are also shown, determined for each agent alone (initial) and in combinations (final). […]

The mark [2] stands for this setting: in combination PlySs2 + CFZ (final).
Setting [3] is: in combination PlySs2 + NAF (final).

Regarding `Cc1nnc(SCC2=C(C(=O)O)N3C(=O)[C@@H](NC(=O)Cn4cnnn4)[C@H]3SC2)s1` [CFZ, cefazoline], the MICinitial in the assay with MRSA strain ATCC 33591 was found to be 128; in the assay on MRSA strain ATCC 43300, 16; in the assay with MRSA strain CAIRD 426, 8; with MRSA strain HPV 107, 16; in the assay with MRSA strain JMI 1280, 32; in the assay on MRSA strain JMI 227, 2. In addition, the MICinitial in the assay on MRSA strain JMI4789 stood at 4; with MRSA strain MW2, 4; in the assay on MRSA strain NRS 11, 256. The MICfinal with MRSA strain ATCC 33591 (setting [2]) is listed as 0.5*; with MRSA strain ATCC 43300 (setting [2]), 4; with MRSA strain CAIRD 426 (setting [2]), 0.5*; in the assay with MRSA strain HPV 107 (setting [2]) it was 2*; in the assay with MRSA strain JMI 1280 (setting [2]), 0.5*; in the assay with MRSA strain JMI 227 (setting [2]), 0.5. Further, the MICfinal in the assay with MRSA strain JMI4789 (setting [2]), with MRSA strain MW2 (setting [2]) and in the assay with MRSA strain NRS 11 (setting [2]) was 1* each time. Also, in assay [1], the “MIC in synergistic combination with PlySs2 relative to breakpoint” value is reported as “below breakpoint values”.
With `CCOc1ccc2ccccc2c1C(=O)N[C@@H]1C(=O)N2[C@@H]1SC(C)(C)[C@@H]2C(=O)O` [NAF, nafcillin], the MICinitial in the assay on MRSA strain ATCC 33591 worked out at 64; in the assay with MRSA strain ATCC 43300, 2; in the assay on MRSA strain CAIRD 426, 16; in the assay with MRSA strain HPV 107 it was 2; in the assay with MRSA strain JMI 1280 it was 256; in the assay with MRSA strain JMI 227, 4. For the same compound, the MICinitial in the assay on MRSA strain JMI4789 is 4; in the assay with MRSA strain MW2, 4; in the assay with MRSA strain NRS 11, 64. The MICfinal was 2* in the assay with MRSA strain ATCC 33591 (setting [3]); 0.25 in the assay with MRSA strain ATCC 43300 (setting [3]); 1* in the assay with MRSA strain CAIRD 426 (setting [3]); 0.25 in the assay with MRSA strain HPV 107 (setting [3]); 2* in the assay with MRSA strain JMI 1280 (setting [3]); 0.5* in the assay with MRSA strain JMI 227 (setting [3]). Besides, the results for the MICfinal with MRSA strain JMI4789 (setting [3]), in the assay on MRSA strain MW2 (setting [3]) and in the assay on MRSA strain NRS 11 (setting [3]) were 0.5*, 0.031* and 1*, respectively. In addition, the “MIC in synergistic combination with PlySs2 relative to breakpoint” value in assay [1] is “below breakpoint values”.
